Experimental data taken from the supplement of paper PMC7600603.

How the values were obtained:
DLD1 NRF2-GOF [1] = details: 72 h; CellTiter-Glo viability
How it was run: (§1)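 DLD1 colorectal cancer cells, an isogenic pair either NRF2 wild-type or carrying a CRISPR gain-of-function, were cultured in DMEM with 10% FBS and treated in 384-well plates with library compounds at 5 concentrations across a 10,000-fold range. CellTiter-Glo viability was read on a Pherastar FS reader after 72 h and normalised to vehicle wells and 100-μM positive-control wells. Four-parameter logistic dose-response fits were applied. EC50 and drug sensitivity score, a normalised area under the curve, were taken from these fits.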

DLD1 NRF2-WT [2] = details: 72 h; CellTiter-Glo viability
How it was run: as §1

DLD1 NRF2-GOF [3] = experiment: TC50 cytotoxicity; higher = less toxic; details: 72 h; CellTox Green cytotoxicity
How it was run: (§2)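 Isogenic DLD1 colorectal cancer cells differing in NRF2 status, one line edited by CRISPR, were cultured in DMEM with 10% FBS and treated in 384-well plates with library compounds at 5 concentrations spanning a 10,000-fold range. Plates were read after 72 h with CellTox Green on a Pherastar FS reader, and signals were normalised to vehicle wells and 100-μM positive-control wells. Cytotoxicity was summarised as TC50 and as a drug sensitivity score, a normalised area under the curve, both from logistic dose-response fits.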

DLD1 NRF2-WT [4] = experiment: TC50 cytotoxicity; higher = less toxic; details: 72 h; CellTox Green cytotoxicity
How it was run: as §2

DLD1 NRF2-GOF [5] = experiment: drug sensitivity score (DSS) cytotoxicity (DSS score); higher = more toxic; extreme values may be limits of the assay; details: 72 h; CellTox Green cytotoxicity
How it was run: as §2

DLD1 NRF2-WT [6] = experiment: as above; details: 72 h; CellTox Green cytotoxicity
How it was run: as §2

DLD1 NRF2-GOF [7] = experiment: drug sensitivity score (DSS) viability (DSS score); higher = more sensitive; extreme values may be limits of the assay; details: 72 h; CellTiter-Glo viability
How it was run: as §1

DLD1 NRF2-WT [8] = experiment: as above; details: 72 h; CellTiter-Glo viability
How it was run: as §1

Row | Structure (SMILES) | EC50 viability (DLD1 NRF2-GOF [1]) | EC50 viability (DLD1 NRF2-WT [2]) | TC50 cytotoxicity (DLD1 NRF2-GOF [3]) | TC50 cytotoxicity (DLD1 NRF2-WT [4]) | drug sensitivity score (DLD1 NRF2-GOF [5]) | drug sensitivity score (DLD1 NRF2-WT [6]) | drug sensitivity score (DLD1 NRF2-GOF [7]) | drug sensitivity score (DLD1 NRF2-WT [8])
1 | Cc1cc(Nc2ncc(Cl)c(Nc3ccccc3S(=O)(=O)C(C)C)n2)c(OC(C)C)cc1C1CCNCC1 [Ceritinib] | 728 nM | 546 nM | > 2500 nM | > 2500 nM | 0 | 0 | 4.2 | 5.2
2 | CCN(CC)CCCC(C)Nc1ccnc2cc(Cl)ccc12 (stereo not given) [Chloroquine] | 9780 nM | 6410 nM | 25800 nM | 26100 nM | 5 | 6 | 11.8 | 13.8
3 | CC(C)[C@H]1C(=O)N[C@@H](CCCNC(=N)N)C(=O)NCC(=O)N[C@@H](CC(=O)O)C(=O)N[C@H](Cc2ccccc2)C(=O)N1C [Cilengitide] | 315 nM | > 10000 nM | > 10000 nM | > 10000 nM | 0 | 0 | 3.9 | 0
4 | Nc1nc(Cl)nc2c1ncn2[C@H]1C[C@H](O)[C@@H](CO)O1 [Cladribine] | 145 nM | 25.6 nM | > 1000 nM | > 1000 nM | 0 | 0 | 5.5 | 10.4
5 | Nc1nc(Cl)nc2c1ncn2[C@@H]1O[C@H](CO)[C@@H](O)[C@@H]1F [Clofarabine] | 171 nM | 166 nM | > 10000 nM | > 10000 nM | 0 | 0 | 13.2 | 11.8
6 | COc1c(OCCCN2CCOCC2)ccc2c1N=C(NC(=O)c1cnc(N)nc1)N1CCN=C21 [Copanlisib] | 199 nM | 66.4 nM | > 1000 nM | > 1000 nM | 0 | 0.8 | 2.9 | 8.1
7 | CC1(COc2ccc3c(c2)ncn3-c2ccc3cccc(N4CCC(N)CC4)c3n2)COC1 [Crenolanib] | 1460 nM | 1030 nM | 2890 nM | 2650 nM | 6.1 | 4.3 | 9.3 | 10.9
8 | Nc1ccn([C@@H]2O[C@H](CO)[C@@H](O)[C@@H]2O)c(=O)n1 [Cytarabine] | 477 nM | 650 nM | > 10000 nM | > 10000 nM | 0 | 0 | 6.5 | 5
9 | CC(C)(C)c1nc(-c2cccc(NS(=O)(=O)c3c(F)cccc3F)c2F)c(-c2ccnc(N)n2)s1 [Dabrafenib] | > 2500 nM | 993 nM | > 2500 nM | > 2500 nM | 0 | 0 | 0.6 | 1.4
10 | COc1cc2ncnc(Nc3ccc(F)c(Cl)c3)c2cc1NC(=O)/C=C/CN1CCCCC1 [Dacomitinib] | 247 nM | 96.4 nM | > 1000 nM | > 1000 nM | 0 | 0 | 2.4 | 5.9
11 | Cn1c(=O)n(-c2ccc(C(C)(C)C#N)cc2)c2c3cc(-c4cnc5ccccc5c4)ccc3ncc21 [Dactolisib] | 26.1 nM | 13.2 nM | > 1000 nM | > 1000 nM | 0 | 0 | 9.8 | 13.9
12 | CO[C@@H](C(=O)N1Cc2[nH]nc(NC(=O)c3ccc(N4CCN(C)CC4)cc3)c2C1)c1ccccc1 [Danusertib] | 92.1 nM | 357 nM | > 10000 nM | > 10000 nM | 0 | 2.4 | 16.6 | 10.4
13 | O=C(/C=C/c1cccnc1)NCCCCC1CCN(C(=O)c2ccccc2)CC1 [Daporinad] | 4.9 nM | 4 nM | > 1000 nM | > 1000 nM | 0 | 0 | 25.9 | 27.6
14 | CCN(CC)CCN(Cc1ccc(-c2ccc(C(F)(F)F)cc2)cc1)C(=O)Cn1c(SCc2ccc(F)cc2)nc(=O)c2c1CCC2 [Darapladib] | > 1000 nM | > 1000 nM | > 1000 nM | > 1000 nM | 0 | 0 | 4.1 | 0
15 | CC[C@@](C)(Nc1ccnc(-c2c[nH]c3ncccc23)n1)C(=O)NCC(F)(F)F [Decernotinib] | > 10000 nM | > 10000 nM | > 10000 nM | > 10000 nM | 0 | 0 | 0 | 0
16 | CC(=O)N(O)CCCCCNC(=O)CCC(=O)N(O)CCCCCNC(=O)CCC(=O)N(O)CCCCCN [Deferoxamine] | 2010 nM | 3250 nM | > 10000 nM | > 10000 nM | 0 | 0 | 7 | 4.8
17 | C[C@H]1O[C@@H](O[C@H]2[C@@H](O)C[C@H](O[C@H]3[C@@H](O)C[C@H](O[C@H]4CC[C@@]5(C)[C@H](CC[C@@H]6[C@@H]5C[C@@H](O)[C@]5(C)[C@@H](C7=CC(=O)OC7)CC[C@]65O)C4)O[C@@H]3C)O[C@@H]2C)C[C@H](O)[C@@H]1O [Digoxin] | 24.5 nM | 47.3 nM | 218 nM | 326 nM | 4.6 | 4.3 | 18.8 | 15.8
18 | CCc1cnn2c(NCc3ccc[n+]([O-])c3)cc(N3CCCC[C@H]3CCO)nc12 [Dinaciclib] | 9.6 nM | 3.4 nM | > 1000 nM | > 1000 nM | 0 | 3.3 | 21 | 27.5
19 | CCN(CC)C(=S)SSC(=S)N(CC)CC [Disulfiram(+CuCl2)] | > 50000 nM | > 50000 nM | > 50000 nM | > 50000 nM | 0 | 0 | 0.1 | 0.1
20 | Cc1ccc(-n2nc(C(C)(C)C)cc2NC(=O)Nc2ccc(OCCN3CCOCC3)c3ccccc23)cc1 [Doramapimod] | > 10000 nM | > 10000 nM | > 10000 nM | > 10000 nM | 0 | 0 | 0 | 0
